Measurements taken from patent publication US20130172346A1, “USE OF KYNURENIC ACID AMIDE DERIVATIVES FOR THE TREATMENT OF HUNTINGTON'S DISEASE” (priority 2010, published 2013).
Entries after “also recorded” stand apart in the source; their conditions may differ.

Tests used:
[1] = cited from earlier work
[2] = test system: organic anion transporters; details: mediated by organic anion transporters; cited from earlier work
N171-82Q transgenic mice [3] = experiment: Survival test in N171-82Q transgenic mouse model of Huntington's disease; assay type: in vivo; details: p=0.016
Source text: (§1) The transgenic N171-82Q mice were originally obtained from Jackson Laboratories (Bar Harbor, Me., United States), later we have propagated them in our laboratories by using B6C3F1 background strains. The progeny were genotyped by PCR technique from tail-DNA. The animals were kept in transgenic cages under standard laboratory conditions (up to 5 animals/cage), and had free access to water and food. Male and female transgenic and wild type animals respectively, were equally allotted to the individual test groups. The transgenic animals were injected intraperitoneally (5 ml/kg of body weight) every day at the same time with 2-(2-N,N-dimethylaminoethylamino-1-carbonyl)-1H-quinolin-4-one hydrochloride (at a dose of 100 mg/kg of body weight, dissolved in distilled water, pH was adjusted to 6.5 with 1N NaOH). The control transgenic and wild animals, respectively obtained a salt solution comprising 0.1 M of phosphate buffer (PBS) (5 ml/kg of body weight). The animals were inoculated in the first 5 days of the week starting from the age of 7 weeks.
The transgenic animals were inoculated as disclosed above with 2-(2-N,N-dimethylamino-ethylamino-1-carbonyl)-1H-quinolin-4-one hydrochloride (n=10), and the transgenic animals serving as a control, were inoculated with 0.1 M PBS (n=10) until the animals perished. As negative control wild type animals, treated with 0.1M PBS were used (n=10).
(§2) The statistical analysis of our data was performed by using Statistica software (StatSoft Inc., (2008) STATISTICA version 8.0.; www.statsoft.com). The analysis of the survival data was carried out by Kaplan-Meyer survival curves and Mantel-Cox log rank test. The normality of the data of the open-field test, the body weight measurement and the striatal cell volume measurement was first examined by Shapiro-Wilk W test. […] The significance level was determined at p<0.05. In case of normal distribution an average±S.E.M and in case of non-normal distribution the median and the interquartile range were used in order to depict the data

N171-82Q transgenic mice [4] = experiment: Open-field test for examining motor activity (covered distance); assay type: in vivo, mouse
Source text: as §1
A test method almost identical with the method disclosed for the survival test was used with the exception of the number of animals (n=9, n=8, n=8 corresponding to the above group assignment). The spontaneous motor activity of the mice was tested once a week 2 hours after the given daily inoculation, always at the same day of the week. The animals stayed in the test unit (48×48×40 cm box open from above) for 5 minutes, the motor parameters were registered by the aid of Conducta 1.0 software (Experimetria Ltd., Budapest, Hungary). In order to characterize the motor activity, the parameter of the covered distance was selected and the data of the examined 9 weeks (between the age of 7 and 15 weeks) were evaluated as follows: an average of the first, second, third 3 weeks was calculated for each test group and the three test groups were compared according to the obtained average values.
as §2

N171-82Q transgenic mice [5] = experiment: Body weight measurements; assay type: in vivo, mouse; details: 100 mg/kg i.p., weekly measurement from age of 7 weeks; p=0.00022
Source text: as §1
(§3) The body weight of the animals was measured once a week, always at the same day of the week and at the same time of the day, starting from the age of 7 weeks. […]

[6] = test system: neurons of the striatum of N171-82Q transgenic mice; experiment: Immunohistochemistry with cell volume estimation of striatal neurons; assay type: in vivo, mouse; details: 100 mg/kg i.p.
Source text: as §1, §3

SMILES | solubility [1] | elimination from the brain and organism [2] | average survival time (N171-82Q transgenic mice [3]; N171-82Q transgenic mice, intraperitoneal, chronic, 100 mg/kg, n=10, control transgenic 111.3±6.6 days) | survival compared to the control groups (Kaplan-Meier) (N171-82Q transgenic mice [3]; N171-82Q transgenic mice, FIG. 1) | improvement of average survival time (N171-82Q transgenic mice [3]; vs control transgenic animals, intraperitoneal, chronic, 100 mg/kg) | covered distance, last 3 weeks (N171-82Q transgenic mice [4]; 100 mg/kg i.p., last 3 weeks of treatment, p=0.0094) | covered distance, second 3 weeks (N171-82Q transgenic mice [4]; 100 mg/kg i.p., second 3 weeks) | covered distance, first 3 weeks (N171-82Q transgenic mice [4]; 5 minutes, 2 hours after daily inoculation, 100 mg/kg i.p., first 3 weeks (from age of 7 weeks)) | covered distance in progress of time (N171-82Q transgenic mice [4]; N171-82Q transgenic mice, FIG. 2) | body weight compared to the control transgenic animals (N171-82Q transgenic mice [5]) | size (volume) of the neurons in the striatum ([6]; treated transgenic animals at age of 16 weeks, interquartile range 716.2-787.4, untreated transgenic 663.4, wild type 739.0) | atrophy of the neurons in the striatum ([6]; treated vs untreated N171-82Q transgenic animals, hydrochloride, 100 mg/kg)
O=C(O)c1cc(=O)c2ccccc2[nH]1 [KYNA, kynurenic acid] | poor | rapidly eliminated |  |  |  |  |  |  |  |  |  | 
CN(C)CCNC(=O)c1cc(=O)c2ccccc2[nH]1.Cl [2-(2-N,N-dimethylaminoethylamino-1-carbonyl)-1H-quinolin-4-one hydrochloride] |  |  | 145.5 ± 12.0 days | significantly increased | 30.7% | significant improvement | positive changes | has not improved | significant improvement | significantly increased | 744.5 μm^3 | successfully prevented the atrophy; also recorded: prevented the development of atrophy
